{
  "source": "paper PMC10653643",
  "about": "(Journal of Enzyme Inhibition and Medicinal Chemistry, 2023)",
  "key": {"[1]": {"molecular_target": "H1N1 neuraminidase (NA), group-1 (Influenza A virus, UniProt P03468)", "sequence (P03468 36-454 limits assumed)": "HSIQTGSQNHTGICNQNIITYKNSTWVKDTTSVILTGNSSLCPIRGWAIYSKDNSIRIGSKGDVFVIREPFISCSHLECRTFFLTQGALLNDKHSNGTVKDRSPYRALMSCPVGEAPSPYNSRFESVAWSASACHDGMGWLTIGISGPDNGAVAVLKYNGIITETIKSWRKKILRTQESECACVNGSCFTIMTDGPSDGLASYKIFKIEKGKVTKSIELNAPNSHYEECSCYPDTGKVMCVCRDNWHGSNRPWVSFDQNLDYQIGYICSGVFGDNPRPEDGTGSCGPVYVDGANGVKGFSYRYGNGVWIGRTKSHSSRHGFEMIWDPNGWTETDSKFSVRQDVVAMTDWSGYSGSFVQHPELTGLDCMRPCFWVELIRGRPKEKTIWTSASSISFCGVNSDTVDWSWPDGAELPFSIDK", "assay": "biochemical"}, "[2]": {"tested_on": "A/Wisconsin/67/05 (H3N2) virus in MDCK cells", "assay": "microbe, parasite or virus in culture", "type": "cell-based, influenza A virus H3N2", "details": "for EC50: read-out: EC50 towards influenza virus H3N2"}, "[3]": {"tested_on": "A/PR/8/34 (H1N1) virus in MDCK cells", "assay": "microbe, parasite or virus in culture", "type": "cell-based, influenza A virus H1N1", "details": "read-out: EC50 towards influenza virus H1N1"}, "in vitro": {"assay": "in vitro", "details": "dog"}, "[4]": {"details": "Influenza A virus, H1N1|PR/8, MDCK"}},
  "note": "Where two headings read alike, the source gives them in different places.",
  "data": [
    {"smiles": "CCC(CC)O[C@@H]1C=C(C(=O)O)C[C@H](NCc2ccc(-c3cncnc3)cc2)[C@H]1NC(C)=O", "note": "[3c, (3R,4R,5S)-4-acetamido-3-(pentan-3-yloxy)-5-((4-(pyrimidin-5-yl)benzyl)amino)cyclohex-1-ene-1-carboxylic acid]", "values": [
      {"measurement": "IC50", "setting": "[1]", "result": "12100 ± 1100", "unit": "nM"}
    ]},
    {"smiles": "CCC(CC)O[C@@H]1C=C(C(=O)O)C[C@H](NCc2ccc(-c3cnc(Cl)nc3)cc2)[C@H]1NC(C)=O", "note": "[3d, (3R,4R,5S)-4-acetamido-5-((4–(2-chloropyrimidin-5-yl)benzyl)amino)-3-(pentan-3-yloxy)cyclohex-1-ene-1-carboxylic acid]", "values": [
      {"measurement": "IC50", "setting": "[1]", "result": "4340 ± 360", "unit": "nM"}
    ]},
    {"smiles": "CCC(CC)O[C@@H]1C=C(C(=O)O)C[C@H](NCc2ccc(-c3c(C)nc(N)nc3C)cc2)[C@H]1NC(C)=O", "note": "[3e, (3R,4R,5S)-4-acetamido-5-((4–(2-amino-4,6-dimethylpyrimidin-5-yl)benzyl)amino)-3-(pentan-3-yloxy)cyclohex-1-ene-1-carboxylic acid]", "values": [
      {"measurement": "IC50", "setting": "[1]", "result": "8060 ± 480", "unit": "nM"}
    ]},
    {"smiles": "CCC(CC)O[C@@H]1C=C(C(=O)O)C[C@H](NCc2ccc(N3CCC4(CC3)CN(C(=O)OC(C)(C)C)C4)cc2)[C@H]1NC(C)=O", "note": "[6a, (3R,4R,5S)-4-acetamido-5-((4–(2-(tert-butoxycarbonyl)-2,7-diazaspiro[3.5]nonan-7-yl)benzyl)amino)-3-(pentan-3-yloxy)cyclohex-1-ene-1-carboxylic acid]", "values": [
      {"measurement": "IC50", "setting": "[1]", "result": "3940 ± 110", "unit": "nM"}
    ]},
    {"smiles": "CCC(CC)O[C@@H]1C=C(C(=O)O)C[C@H](NCc2ccc(N3CCC4(CCN(C(=O)OC(C)(C)C)C4)C3)cc2)[C@H]1NC(C)=O", "note": "(stereo partly drawn) [6b, (3R,4R,5S)-4-acetamido-5-((4–(7-(tert-butoxycarbonyl)-2,7-diazaspiro[4.4]nonan-2-yl)benzyl)amino)-3-(pentan-3-yloxy)cyclohex-1-ene-1-carboxylic acid]", "values": [
      {"measurement": "IC50", "setting": "[1]", "result": "400 ± 33", "unit": "nM"}
    ]},
    {"smiles": "CCC(CC)O[C@@H]1C=C(C(=O)O)C[C@H](NCc2ccc(N3CC4(CCN(C(=O)OC(C)(C)C)CC4)C3)cc2)[C@H]1NC(C)=O", "note": "[6c, (3R,4R,5S)-4-acetamido-5-((4–(7-(tert-butoxycarbonyl)-2,7-diazaspiro[3.5]nonan-2-yl)benzyl)amino)-3-(pentan-3-yloxy)cyclohex-1-ene-1-carboxylic acid]", "values": [
      {"measurement": "IC50", "setting": "[1]", "result": "1400 ± 73", "unit": "nM"}
    ]},
    {"smiles": "CCC(CC)O[C@@H]1C=C(C(=O)O)C[C@H](NCc2ccc(N3CC4(CN(C(=O)OC(C)(C)C)C4)C3)cc2)[C@H]1NC(C)=O", "note": "[6d, (3R,4R,5S)-4-acetamido-5-((4–(6-(tert-butoxycarbonyl)-2,6-diazaspiro[3.3]heptan-2-yl)benzyl)amino)-3-(pentan-3-yloxy)cyclohex-1-ene-1-carboxylic acid]", "values": [
      {"measurement": "IC50", "setting": "[1]", "result": "3100 ± 240", "unit": "nM"}
    ]},
    {"smiles": "CCC(CC)O[C@@H]1C=C(C(=O)O)C[C@H](NCc2ccc(N3CCC4(CC3)OCCO4)cc2)[C@H]1NC(C)=O", "note": "[6e, (3R,4R,5S)-5-((4–(1,4-dioxa-8-azaspiro[4.5]decan-8-yl)benzyl)amino)-4-acetamido-3-(pentan-3-yloxy)cyclohex-1-ene-1-carboxylic acid]", "values": [
      {"measurement": "IC50", "setting": "[1]", "result": "1990 ± 190", "unit": "nM"}
    ]},
    {"smiles": "CCC(CC)O[C@@H]1C=C(C(=O)O)C[C@H](NCc2ccc(N3CC4C(C3)C4(C)C)cc2)[C@H]1NC(C)=O", "note": "(stereo partly drawn) [6f, (3R,4R,5S)-4-acetamido-5-((4–(6,6-dimethyl-3-azabicyclo[3.1.0]hexan-3-yl)benzyl)amino)-3-(pentan-3-yloxy)cyclohex-1-ene-1-carboxylic acid]", "values": [
      {"measurement": "IC50", "setting": "[1]", "result": "430 ± 36", "unit": "nM"}
    ]},
    {"smiles": "CCC(CC)O[C@@H]1C=C(C(=O)O)C[C@H](NCc2ccc(N3CC4CC4C3)cc2)[C@H]1NC(C)=O", "note": "(stereo partly drawn) [6g, (3R,4R,5S)-5-((4–(3-azabicyclo[3.1.0]hexan-3-yl)benzyl)amino)-4-acetamido-3-(pentan-3-yloxy)cyclohex-1-ene-1-carboxylic acid]", "values": [
      {"measurement": "fold activity enhancement over zanamivir (ZA) against H3N2 virus", "setting": "[2]", "result": "~2", "unit": "fold"},
      {"measurement": "EC50", "setting": "[2]; Influenza A virus, H3N2, MDCK", "result": "160 ± 80", "unit": "nM"},
      {"measurement": "IC50", "setting": "[1]", "result": "190 ± 9.6", "unit": "nM"},
      {"measurement": "EC50", "setting": "[3]; [4]", "result": "30 ± 30", "unit": "nM"},
      {"measurement": "CC50", "setting": "in vitro", "result": "> 250000", "unit": "nM"}
    ]},
    {"smiles": "CCC(CC)O[C@@H]1C=C(C(=O)O)C[C@H](NCc2ccc(N3CC4CCCC4C3)cc2)[C@H]1NC(C)=O", "note": "(stereo partly drawn) [6h, (3R,4R,5S)-4-acetamido-5-((4-(hexahydrocyclopenta[c]pyrrol-2(1H)-yl)benzyl)amino)-3-(pentan-3-yloxy)cyclohex-1-ene-1-carboxylic acid]", "values": [
      {"measurement": "IC50", "setting": "[1]", "result": "300 ± 1.6", "unit": "nM"}
    ]},
    {"smiles": "CCC(CC)O[C@@H]1C=C(C(=O)O)C[C@H](NCc2ccc(N3CC4CCCCC4C3)cc2)[C@H]1NC(C)=O", "note": "(stereo partly drawn) [6i, (3R,4R,5S)-4-acetamido-5-((4-(octahydro-2H-isoindol-2-yl)benzyl)amino)-3-(pentan-3-yloxy)cyclohex-1-ene-1-carboxylic acid]", "values": [
      {"measurement": "EC50", "setting": "[2]; Influenza A virus, H3N2, MDCK", "result": "320 ± 80", "unit": "nM"},
      {"measurement": "IC50", "setting": "[1]", "result": "150 ± 31", "unit": "nM"},
      {"measurement": "EC50", "setting": "[3]; [4]", "result": "30 ± 30", "unit": "nM"},
      {"measurement": "CC50", "setting": "in vitro", "result": "> 250000", "unit": "nM"}
    ]},
    {"smiles": "CCC(CC)O[C@@H]1C=C(C(=O)O)C[C@H](NCc2ccc(N3CCC[C@H]3C)cc2)[C@H]1NC(C)=O", "note": "[6k, (3R,4R,5S)-4-acetamido-5-((4-((R)-2-methylpyrrolidin-1-yl)benzyl)amino)-3-(pentan-3-yloxy)cyclohex-1-ene-1-carboxylic acid]", "values": [
      {"measurement": "fold activity enhancement over OSC against H3N2 virus", "setting": "[2]", "result": "~3", "unit": "fold"},
      {"measurement": "fold activity enhancement over zanamivir (ZA) against H3N2 virus", "setting": "[2]", "result": "~2", "unit": "fold"},
      {"measurement": "EC50", "setting": "[2]; Influenza A virus, H3N2, MDCK", "result": "120 ± 30", "unit": "nM"},
      {"measurement": "IC50", "setting": "[1]", "result": "84 ± 7.2", "unit": "nM"},
      {"measurement": "EC50", "setting": "[3]; [4]", "result": "20 ± 10", "unit": "nM"},
      {"measurement": "CC50", "setting": "in vitro", "result": "> 250000", "unit": "nM"}
    ]},
    {"smiles": "CCC(CC)O[C@@H]1C=C(C(=O)O)C[C@H](NCc2ccc(N3CCC3)cc2)[C@H]1NC(C)=O", "note": "[6n, (3R,4R,5S)-4-acetamido-5-((4-(azetidin-1-yl)benzyl)amino)-3-(pentan-3-yloxy)cyclohex-1-ene-1-carboxylic acid]", "values": [
      {"measurement": "IC50", "setting": "[1]", "result": "140 ± 10", "unit": "nM"}
    ]},
    {"smiles": "CCC(CC)O[C@@H]1C=C(C(=O)O)C[C@H](NCc2ccc(N(C)CC)cc2)[C@H]1NC(C)=O", "note": "[6o, (3R,4R,5S)-4-acetamido-5-((4-(ethyl(methyl)amino)benzyl)amino)-3-(pentan-3-yloxy)cyclohex-1-ene-1-carboxylic acid]", "values": [
      {"measurement": "IC50", "setting": "[1]", "result": "360 ± 18", "unit": "nM"}
    ]},
    {"smiles": "CCC(CC)O[C@@H]1C=C(C(=O)O)C[C@H](N)[C@H]1NC(C)=O", "note": "[OSC, oseltamivir carboxylate, reference compound]", "values": [
      {"measurement": "EC50", "setting": "[2]", "result": "360 ± 160", "unit": "nM"},
      {"measurement": "EC50", "setting": "[3]", "result": "[…]"},
      {"measurement": "CC50", "setting": "in vitro", "result": "> 250000", "unit": "nM"}
    ]},
    {"smiles": "CC(=O)N[C@H]1[C@H]([C@H](O)[C@H](O)CO)OC(C(=O)O)=C[C@@H]1N=C(N)N", "note": "[ZA, zanamivir, reference compound]", "values": [
      {"measurement": "EC50", "setting": "[2]; Influenza A virus, H3N2, MDCK", "result": "270 ± 30", "unit": "nM"},
      {"measurement": "EC50", "setting": "[3]; [4]", "result": "[…]"},
      {"measurement": "CC50", "setting": "in vitro", "result": "> 250000", "unit": "nM"}
    ]}
  ]
}
